± gives the expanded uncertainty stated by the source.
Experiments:
[1] = excess molar enthalpy (molar enthalpy of mixing); xn = mol fraction of the nth substance listed; settings: 101.3 kPa, Liquid, Calvet calorimetry
[2] = xn = mol fraction of the nth substance listed; settings: 101.3 kPa, Liquid

Compound `CCOC=O` [ethyl methanoate] + CC(C)(C)O has an excess molar enthalpy ([1]; 299.15 K, x1 = 0.0689) of 0.588 ± 0.015 kJ/mol, an excess molar enthalpy ([1]; 299.15 K, x1 = 0.1401) of 1.06 ± 0.018 kJ/mol and an excess molar enthalpy ([1]; 299.15 K, x1 = 0.2146) of 1.48 ± 0.021 kJ/mol. The excess molar enthalpy ([1]; 299.15 K, x1 = 0.2869) was 1.8 ± 0.024 kJ/mol, the excess molar enthalpy ([1]; 299.15 K, x1 = 0.3549) was 2 ± 0.025 kJ/mol and the excess molar enthalpy ([1]; 299.15 K, x1 = 0.4172) was 2.12 ± 0.026 kJ/mol. The excess molar enthalpy ([1]; 299.15 K, x1 = 0.4738) was 2.17 ± 0.027 kJ/mol, the excess molar enthalpy ([1]; 299.15 K, x1 = 0.5242) was 2.16 ± 0.027 kJ/mol and the excess molar enthalpy ([1]; 299.15 K, x1 = 0.5696) was 2.16 ± 0.027 kJ/mol. For the same compound, the excess molar enthalpy ([1]; 299.15 K, x1 = 0.571) was 2.14 ± 0.027 kJ/mol, the excess molar enthalpy ([1]; 299.15 K, x1 = 0.6322) was 2.04 ± 0.026 kJ/mol and the excess molar enthalpy ([1]; 299.15 K, x1 = 0.6996) was 1.87 ± 0.024 kJ/mol. The excess molar enthalpy ([1]; 299.15 K, x1 = 0.7701) was 1.61 ± 0.022 kJ/mol, the excess molar enthalpy ([1]; 299.15 K, x1 = 0.8357) was 1.26 ± 0.019 kJ/mol and the excess molar enthalpy ([1]; 299.15 K, x1 = 0.8964) was 0.893 ± 0.018 kJ/mol. The excess molar enthalpy ([1]; 299.15 K, x1 = 0.9485) was 0.453 ± 0.018 kJ/mol, the excess molar enthalpy ([1]; 318.15 K, x1 = 0.0612) was 0.52 ± 0.014 kJ/mol and the excess molar enthalpy ([1]; 318.15 K, x1 = 0.1263) was 0.916 ± 0.017 kJ/mol. For the same compound, the excess molar enthalpy ([1]; 318.15 K, x1 = 0.2016) was 1.37 ± 0.02 kJ/mol, the excess molar enthalpy ([1]; 318.15 K, x1 = 0.2725) was 1.68 ± 0.022 kJ/mol and the excess molar enthalpy ([1]; 318.15 K, x1 = 0.3389) was 1.85 ± 0.024 kJ/mol. It also gave an excess molar enthalpy ([1]; 318.15 K, x1 = 0.3986) of 1.97 ± 0.025 kJ/mol, an excess molar enthalpy ([1]; 318.15 K, x1 = 0.4509) of 2.03 ± 0.025 kJ/mol and an excess molar enthalpy ([1]; 318.15 K, x1 = 0.4911) of 2.05 ± 0.025 kJ/mol. For the same compound, the excess molar enthalpy ([1]; 318.15 K, x1 = 0.511) was 2.05 ± 0.025 kJ/mol, the excess molar enthalpy ([1]; 318.15 K, x1 = 0.5304) was 2.05 ± 0.025 kJ/mol and the excess molar enthalpy ([1]; 318.15 K, x1 = 0.5696) was 2.03 ± 0.025 kJ/mol. It also gave an excess molar enthalpy ([1]; 318.15 K, x1 = 0.6207) of 1.99 ± 0.025 kJ/mol, an excess molar enthalpy ([1]; 318.15 K, x1 = 0.6806) of 1.88 ± 0.024 kJ/mol and an excess molar enthalpy ([1]; 318.15 K, x1 = 0.7292) of 1.74 ± 0.023 kJ/mol. It also gave an excess molar enthalpy ([1]; 318.15 K, x1 = 0.786) of 1.55 ± 0.021 kJ/mol, an excess molar enthalpy ([1]; 318.15 K, x1 = 0.8292) of 1.35 ± 0.02 kJ/mol and an excess molar enthalpy ([1]; 318.15 K, x1 = 0.8754) of 1.09 ± 0.018 kJ/mol. It also gave an excess molar enthalpy ([1]; 318.15 K, x1 = 0.9191) of 0.805 ± 0.019 kJ/mol, an excess molar enthalpy ([1]; 318.15 K, x1 = 0.9757) of 0.305 ± 0.018 kJ/mol and an excess molar volume ([2]; 303.15 K, x1 = 0.0451) of 1.65e-06 ± 9e-08 m3/mol. For the same compound, the excess molar volume ([2]; 303.15 K, x1 = 0.0901) was 3.35e-06 ± 9e-08 m3/mol, the excess molar volume ([2]; 303.15 K, x1 = 0.1537) was 5.06e-06 ± 9e-08 m3/mol and the excess molar volume ([2]; 303.15 K, x1 = 0.1973) was 6.07e-06 ± 1e-07 m3/mol. It also gave an excess molar volume ([2]; 303.15 K, x1 = 0.2481) of 7.02e-06 ± 1e-07 m3/mol, an excess molar volume ([2]; 303.15 K, x1 = 0.2631) of 7.32e-06 ± 1e-07 m3/mol and an excess molar volume ([2]; 303.15 K, x1 = 0.3042) of 7.9e-06 ± 1.1e-07 m3/mol. It also gave an excess molar volume ([2]; 303.15 K, x1 = 0.3255) of 8.1e-06 ± 1.1e-07 m3/mol, an excess molar volume ([2]; 303.15 K, x1 = 0.3448) of 8.3e-06 ± 1.1e-07 m3/mol and an excess molar volume ([2]; 303.15 K, x1 = 0.3957) of 8.6e-06 ± 1.1e-07 m3/mol. It also gave an excess molar volume ([2]; 303.15 K, x1 = 0.4411) of 8.73e-06 ± 1.1e-07 m3/mol, an excess molar volume ([2]; 303.15 K, x1 = 0.4445) of 8.75e-06 ± 1.1e-07 m3/mol and an excess molar volume ([2]; 303.15 K, x1 = 0.4964) of 8.79e-06 ± 1.1e-07 m3/mol. For the same compound, the excess molar volume ([2]; 303.15 K, x1 = 0.5013) was 8.8e-06 ± 1.1e-07 m3/mol, the excess molar volume ([2]; 303.15 K, x1 = 0.5084) was 8.78e-06 ± 1.1e-07 m3/mol and the excess molar volume ([2]; 303.15 K, x1 = 0.5344) was 8.7e-06 ± 1.1e-07 m3/mol. It also gave an excess molar volume ([2]; 303.15 K, x1 = 0.5515) of 8.64e-06 ± 1.1e-07 m3/mol, an excess molar volume ([2]; 303.15 K, x1 = 0.5677) of 8.58e-06 ± 1.1e-07 m3/mol and an excess molar volume ([2]; 303.15 K, x1 = 0.5954) of 8.35e-06 ± 1.1e-07 m3/mol. For the same compound, the excess molar volume ([2]; 303.15 K, x1 = 0.6467) was 7.94e-06 ± 1.1e-07 m3/mol, the excess molar volume ([2]; 303.15 K, x1 = 0.6956) was 7.42e-06 ± 1e-07 m3/mol and the excess molar volume ([2]; 303.15 K, x1 = 0.7432) was 6.59e-06 ± 1e-07 m3/mol. For the same compound, the excess molar volume ([2]; 303.15 K, x1 = 0.8016) was 5.54e-06 ± 9e-08 m3/mol, the excess molar volume ([2]; 303.15 K, x1 = 0.8477) was 4.63e-06 ± 9e-08 m3/mol and the excess molar volume ([2]; 303.15 K, x1 = 0.9067) was 3.28e-06 ± 8e-08 m3/mol. It also gave an excess molar volume ([2]; 303.15 K, x1 = 0.9465) of 2.17e-06 ± 8e-08 m3/mol, an excess molar volume ([2]; 318.15 K, x1 = 0.1022) of 4.09e-06 ± 9e-08 m3/mol and an excess molar volume ([2]; 318.15 K, x1 = 0.1289) of 4.86e-06 ± 9e-08 m3/mol. The excess molar volume ([2]; 318.15 K, x1 = 0.232) was 7.07e-06 ± 1e-07 m3/mol, the excess molar volume ([2]; 318.15 K, x1 = 0.2909) was 7.96e-06 ± 1.1e-07 m3/mol and the excess molar volume ([2]; 318.15 K, x1 = 0.3356) was 8.41e-06 ± 1.1e-07 m3/mol. The excess molar volume ([2]; 318.15 K, x1 = 0.4076) was 8.97e-06 ± 1.2e-07 m3/mol, the excess molar volume ([2]; 318.15 K, x1 = 0.4696) was 9.17e-06 ± 1.2e-07 m3/mol and the excess molar volume ([2]; 318.15 K, x1 = 0.4934) was 9.19e-06 ± 1.2e-07 m3/mol. It also gave an excess molar volume ([2]; 318.15 K, x1 = 0.5055) of 9.2e-06 ± 1.2e-07 m3/mol, an excess molar volume ([2]; 318.15 K, x1 = 0.5111) of 9.19e-06 ± 1.2e-07 m3/mol and an excess molar volume ([2]; 318.15 K, x1 = 0.5267) of 9.13e-06 ± 1.2e-07 m3/mol. For the same compound, the excess molar volume ([2]; 318.15 K, x1 = 0.536) was 9.09e-06 ± 1.2e-07 m3/mol, the excess molar volume ([2]; 318.15 K, x1 = 0.5637) was 8.91e-06 ± 1.1e-07 m3/mol and the excess molar volume ([2]; 318.15 K, x1 = 0.5859) was 8.75e-06 ± 1.1e-07 m3/mol. The excess molar volume ([2]; 318.15 K, x1 = 0.639) was 8.21e-06 ± 1.1e-07 m3/mol, the excess molar volume ([2]; 318.15 K, x1 = 0.6902) was 7.6e-06 ± 1.1e-07 m3/mol and the excess molar volume ([2]; 318.15 K, x1 = 0.7388) was 6.82e-06 ± 1e-07 m3/mol. It also gave an excess molar volume ([2]; 318.15 K, x1 = 0.7922) of 5.79e-06 ± 9e-08 m3/mol, an excess molar volume ([2]; 318.15 K, x1 = 0.8429) of 4.71e-06 ± 9e-08 m3/mol and an excess molar volume ([2]; 318.15 K, x1 = 0.8913) of 3.45e-06 ± 8e-08 m3/mol. For the same compound, the excess molar volume ([2]; 318.15 K, x1 = 0.9414) was 2.04e-06 ± 8e-08 m3/mol.
